{
  "source": "patent US12280087B2",
  "about": "“Composition comprising self-assembling peptides for use in treatment of gingivitis, periodontitis and/or peri-implantitis” (Credentis AG, priority 2016, dated 2025)",
  "key": {"S. sanguinis": {"test_system": "S. sanguinis", "assay": "Release of antibiotics from self-assembling peptide gels, bacterial growth by turbidity OD600", "assay_type": "cell-based", "details": "antibiotic 150 mg/ml in SAP gels 15 mg/ml (P11-4, P11-13/14, P11-28/29); OD600 normalized to gel without antibiotic; over 120 hours", "protocol": "(§1) FIG. 1: Bacterial density after release of antibiotics (150 mg/ml) from self-assembling peptide gels (15 mg/ml), and the impact thereof to the growth of P. gingivalis (A-C) and S. sanguinis (D-F). Circles: metronidazol, stars: tetracycline, triangle: ciprofloxacin, squares: doxycycline hyclate; control: gel without API\n(§2) Hydrogels comprising self-assembling peptides with (150 mg/ml) and without antibiotics were formed by dissolving the respective peptides at a concentration of 15 mg/ml or equimolar for combination SAP in a concentration of −10 mg*ml-1 as follows:\n(§3) For the gels formed by peptides P11-13 and P11-14: or for P11-28 and P11-29, equimolar solutions of peptides were prepared in a well plate, and pH corrected to physiological conditions, resulting in a gel.\n(§4) Furthermore 100 uL/well of a defined anaerobic P. gingivalis or aerobic S. anguines bacterial culture (10^7 CFU/ml e.g. 990 μl BHI medium, 10 μl 10^8 CFU/ml bacteria suspension) were added onto the gels. Impact on growth was assessed by measuring turbidity at OD600 nm. Data obtained with antibiotics were normalized to control (gel+bacteria+medium without antibiotics) to analyse the relative bacterial density. 50 μl/well of medium were added every second day."}, "P. gingivalis": {"test_system": "P. gingivalis", "assay": "Release of antibiotics from self-assembling peptide gels, bacterial growth by turbidity OD600", "assay_type": "cell-based", "details": "antibiotic 150 mg/ml in SAP gels 15 mg/ml (P11-4, P11-13/14, P11-28/29); OD600 normalized to gel without antibiotic; over 120 hours", "protocol": "as §1, §2, §3, §4"}, "PDLF cells": {"test_system": "PDLF cells", "assay": "Stability of SAP matrices in contact with PDLF cells or medium (peptide in supernatant, UV-spectroscopy)", "assay_type": "cell-based", "details": "20 mg/ml P11-4, 15 mg/ml others; 2000 PDLF cells/well or medium; 24 h", "protocol": "Different SAP hydrogels or matrices (20 mg/ml for P11-4; 15 mg/ml for […]) were contacted with 2000 PDLF cells/well or medium. Degradation was measured after 24 h by detection of peptide concentration in the supernatant by UV-spectroscopy. No significant effect of the cells was seen."}, "[1]": {"test_system": "hPDLF cells (human periodontal ligament fibroblasts)", "assay": "Cell viability on SAP hydrogels compared to Emdogain (PrestoBlue)", "assay_type": "cell-based", "details": "all concentrations tested (15, 20, 30 mg/ml SAP); 24, 48, 96 h; Emdogain 30 mg/ml", "protocol": "(§5) Left column 15 mg/ml SAP, middle column: 20 mg/ml SAP, right column 30 mg/ml SAP for each SAP, for Emdogain®, the concentration is constant at 30 mg/ml, and the three columns show 24, 48 and 96 h administration. […] Collagen (1.5 mg/ml) was used as a test system control. Cell proliferation was measured by the metabolic conversion of PrestoBlue viability reagent. Data were normalized in respect to values measured at day 1.\n(§6) Proliferation of hPDLF (periodontal ligament fibroblasts) and SAOS-2 (Sarcoma osteogenic) cells on self-assembling peptides (P11-4, P11-8, P11-13 and P11-14, 15 mg/ml SAP, 20 mg/ml SAP, 30 mg/ml SAP respectively) was compared to the current gold standard Emdogain® and/or collagen after 24, 48 and 96 h. For Emdogain®, the concentration is constant at 30 mg/ml. Viability was measured by PrestoBlue® Cell Viability Reagent A13261."}, "[2]": {"test_system": "SAOS-2 cells (Sarcoma osteogenic)", "assay": "Cell viability on SAP hydrogels compared to Emdogain (PrestoBlue)", "assay_type": "cell-based", "protocol": "as §5, §6"}, "[3]": {"test_system": "periodontal ligament fibroblasts (PDLF)", "assay": "In vitro periodontal pocket model, migration of PDLF out of donor compartment", "assay_type": "cell-based, human", "details": "P11-4 20 mg/ml, all others 15 mg/ml", "protocol": "FIG. 6: Cell migration of a 15 mg/ml P11-4 gel on a periodontal ligament model after 8 days of incubation. Human Periodontal Ligament cells were placed in a cell pool (A) and the SAP gel (C) placed on the human dentin (B). The cell/SAP-gel/dentin was then incubated for 8 days and visually assessed resulting in migration of up to 5 mm. Scale bar: 1 mm\nAn in vitro model of a periodontal pocket (Meyer et al., 2016) was used to assess the migration distance of periodontal ligament fibroblasts (PDLF) out of the donor compartment. In brief, to determine early processes of tissue healing, three endpoints were investigated: Adhesion, proliferation and migration of human primary periodontal ligament fibroblasts (PDLF, ScienCell). In order to mimic the in vivo conditions as close as possible, pure bovine dentin surface served as underlying structure. Adhesion and proliferation of PDLF was assessed in a time dependent manner using ATP viability Kit (Promega). Visualization of the cells on the matrix was realized by SEM. For evaluation of cell adhesion and proliferation, Emdogain® (Straumann) was used as a positive control, as it has already proven its efficacy to promote periodontal regeneration in vivo. […]\nPDLF cells were allowed to migrate in different SAP or collagen hydrogels (P11-4: 20 mg/ml; all others 15 mg/ml), as explained in Example L. Migration distances were analyzed after 4 and 8 days. […]"}, "[4]": {"assay": "Mechanical properties (G′) of SAP gels in different ions and buffer systems", "assay_type": "physicochemical", "protocol": "FIG. 5: Mechanical properties are dependent on the presence of different ions and buffer systems. […] Since NO3− are monovalent ions, and ionic strength of the solution was below 130 mM, P11-8 self-assembling was slowed down. On the other hand self-assembling kinetic of P11-8 with DMEM and NaCl solution is very similar."}, "[5]": {"assay": "Self-assembly at neutral pH, visual appearance", "assay_type": "physicochemical", "details": "1 part RADA16 solution (1 wt % in water) added to 1 part DMEM, neutral pH 7"}},
  "note": "Where no end group is shown, it is not given here. [ ]: non-standard residue; d: D form. Orn = NCCC[C@H](N)C(=O)O",
  "data": [
    {"compound": "Cc1ncc([N+](=O)[O-])n1CCO", "note": "[metronidazole]", "values": [
      {"measurement": "impact of antibiotic released from SAP gel on bacterial growth (relative bacterial density)", "setting": "S. sanguinis", "value": "low effectivity in most systems at this concentration"},
      {"measurement": "impact of antibiotic released from SAP gel on bacterial growth (relative bacterial density)", "setting": "P. gingivalis", "value": "low effectivity in most systems at this concentration"}
    ]},
    {"compound": "QQRFOWOFEQQ (QQRF[Orn]W[Orn]FEQQ) [P11-8, self-assembling peptide]", "values": [
      {"measurement": "degradation (peptide concentration in the supernatant)", "setting": "PDLF cells", "value": "degraded slightly more than the other SAP"},
      {"measurement": "cell viability compared to Emdogain", "setting": "[1]", "value": "increased cell viability of hPDLF cells compared to Emdogain®"},
      {"measurement": "cell viability compared to Emdogain", "setting": "[2]; 30 mg/ml SAP", "value": "strongly increased"},
      {"measurement": "cell viability compared to Emdogain", "setting": "[2]; the other concentrations (15, 20 mg/ml SAP)", "value": "slightly increased or about equal"},
      {"measurement": "homogenous migration of PDLF cells, visually", "setting": "[3]", "value": "most obvious"},
      {"measurement": "migration distance of PDLF cells compared to collagen", "setting": "[3]; after 4 days", "value": "slightly increased compared to collagen"},
      {"measurement": "storage modulus G′ / self-assembling kinetic of gel", "setting": "[4]; DMEM pH 7.4 versus Tris-NaCl", "value": "very similar"},
      {"measurement": "storage modulus G′ of gel", "setting": "[4]; artificial saliva (Tris 120 mM, Ca(NO3) 4 mM, KH2PO4 2.4 mM, pH 7.2) versus Tris-NaCl, DMEM, Tris MgSO4", "value": "lowest storage modulus was achieved with artificial saliva"}
    ]},
    {"compound": "RADA16", "values": [
      {"measurement": "self-assembly", "setting": "[5]", "value": "No self-assembling is visible"}
    ]}
  ]
}
